For data set [1], the system named is rat hippocampal brain slices. As to the kind of experiment: Reversal of mGluR2-agonism (LY-354740-depressed fEPSP) in hippocampal brain slices. The format is cell-based. The text has this: 7) Reversal of mGluR2-Agonism in Hippocampal Brain Slices Introduction
Electrophysiology recordings of field excitatory postsynaptic potentials (fEPSPs) in acute hippocampal brain slices represent a model for testing synaptic transmission and plasticity. The effect of Co. No. 1 on synaptic transmission and plasticity in dentate gyms synapses was investigated using this model.
Recordings of fEPSPs were made from hippocampal brain slices using a multi-electrode array (MEA) biochip, and 3-dimensional-(3D) tip electrodes, according to a standard protocol. These recordings were used to monitor glutamate-mediated synaptic transmission (FIG. 4).

Data set [2] deals with Male Wiga Wistar rats. As to the kind of experiment: Reversal of LY-404039-induced decrease of palpebral opening in apomorphine-challenged rats. The format is in vivo. Particulars: Rattus norvegicus, reversal of LY-404039-induced decrease of palpebral opening (cumulative score >26) in apomorphine challenged rats. The procedure: 6) Reversal of LY-404039-Induced Decrease of Palpebral Opening in Apomorphine-Challenged Rats.
Male Wiga Wistar rats (Crl:WI; Charles River Germany; 220±40 g) were housed under standard laboratory conditions (21±2° C.; 50-65% relative humidity; light-dark cycle set at 12 h; lights on at 6.00 h) and fasted overnight prior to the start of the experiments (tap water remained available ad libitum). During the test period, they were housed in individual cages. The local Ethical Committee approved all studies in compliance with the Declaration of Helsinki. Palpebral opening was scored every 5 min over the first hour after injection of apomorphine (1.0 mg/kg, i.v.) in animals either pretreated or not pretreated with LY-404039 (2.5 mg/kg, s.c.) at 1 h prior to the apomorphine injection. The animals were also pretreated with test compound or solvent at a predefined interval before apomorphine challenge. The score system was: (5) exophthalmos, (4) wide open, (3) open for three-quarters, (2) half open, (1) open for one-quarter, (0) closed. The scores for palpebral opening were cumulated over the 60-min observation period. A cumulative palpebral opening score >26 was selected for drug-induced reversal of the LY-404039-induced decrease of palpebral opening (occurrence in 3.2% of control animals pretreated with LY-404039 (n=154) versus in 99.5% of control rats not pretreated with LY-404039 (n=6335)).
In animals receiving apomorphine alone the median palpebral opening is 43 whereas in animals receiving apomorphine and LY-404039, the median palpebral opening is 17.

Data set [3] deals with Wiga rats. As to the kind of experiment: Reserpine interaction test in rats. The settings on record: Rattus norvegicus, po; Time 60; reserpine 10 mg/kg SC; Wiga rats; read-out: ED50, reversal of reserpine-induced ptosis. Format: in vivo, rat. The method, then:
4) Reserpine Interaction Test in Rats
It was investigated to what extent the mydriatic action of test compounds was sufficient to counteract the miosis induced by the monoamines-depleting agent reserpine (10 mg/kg; SC) in Wiga rats.
The effects are illustrated in FIG. 3. […] The reference mGlu2 NAMs RO-4995819 (40 mg/kg, p.o.), RO-4491533 (40 mg/kg, p.o.; 10 mg/kg, s.c.) and [CAS 579473-69-1]

Data set [4] concerns rats. Nature of the data set: Reversal of the effect of the mGluR2 PAM JNJ-42153605 on scopolamine-induced hyperlocomotion. The format is in vivo. Particulars: Rattus norvegicus, 1 h, Route PO, test compound 60 min before recording, criterion total distance >1500 cm. The procedure:
2) Reversal of the Effect of the mGluR2 PAM JNJ-42153605 on Scopolamine-Induced Hyperlocomotion Apparatus
Motor activity was measured in microprocessor-based motor activity arenas (closed gray PVC cylinders with a height of 39 cm and a diameter of 31 cm). Each arena was placed on an infrared LED (8×8 LEDs) lit box (white PVC squared box; 40×40 cm^2; height 12.5 cm. An infrared-sensitive tube camera and a white light source were mounted to the ceiling above the observation chamber to track the animal. The total distance traveled (cm) was recorded and analyzed using the Noldus Ethovision XT Video Tracking System (Version 7.0.418; Noldus, Wageningen, The Netherlands). The intensity of the light within the activity cages (measured in the centre at the level of the floor) ranged between 4 and 8 LUX.
The rats were pretreated with test compound or vehicle at 60 min before the start of the activity recordings and placed into individual cages. The rats were challenged with JNJ-42153605 (3-(cyclopropylmethyl)-7-(4-phenylpiperidin-1-yl)-8-(trifluoromethyl)[1,2,4]triazolo[4,3-a]pyridine; WO2010/130424; Cid et al. J. Med. Chem. 2012, 55, 8770-8789) (20 mg/kg, i.v.) 30 min before the start of the activity recording combined with scopolamine (0.16 mg/kg, i.v.) just before the start of the activity measurements Immediately after the injection of scopolamine, the rats were placed into the activity monitors and total distance travelled over the first 30 min was measured.
Animals receiving the combination of JNJ-42153605 and scopolamine (n=433) almost always travelled a distance of less than 1500 cm (<1500 cm) (only 2.5% of the control rats travelled a distance of more than 1500 cm (>1500 cm)). On the other hand, animals challenged with scopolamine alone (n=215) always travelled a total distance of more than 1500 cm (>1500 cm) and almost always (in 95.8% of the rats) a distance of more than 4400 cm (>4400 cm). […] For reversal of the inhibitory effect of JNJ-42153605 on the scopolamine-induced hyperlocomotion, two all-or-none criteria were adopted: (1) reversal: total distance >1500 cm; (2) normalization: total distance >4400 cm.

Data set [5] deals with T1, human mGlu2 receptor (Homo sapiens, UniProt Q14416).
T1 construct: expressed in transfected cells; host or cells: CHO cells (membrane preparation)
Nature of the data set: [35S]GTPγS binding assay (mGluR2 negative allosteric modulation). The format is biochemical. The settings on record: for IC50: membranes from CHO cells transfected with human mGlu2 receptor, glutamate 60 μM, pIC50 = −log IC50 (M), read-out: GTPγS - hmGluR2 anGT pIC50 (converted); for Emax: relative maximal effect: maximal % inhibition relative to the control glutamate response, read-out: GTPγS - hmGluR2 anGT Emax. The method in brief:
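Negative allosteric modulation read as [35S]GTPγS (0.1 nM) incorporation over 30 min at 30 °C, expressed as % of the response to an EC80-equivalent glutamate concentration. Assay used 7 μg human mGlu2 CHO membrane protein in HEPES pH 7.4 buffer with NaCl, MgCl2, GDP and saponin; bound label collected by filtration.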
Background: Binding of GTPγS marks nucleotide exchange on a G protein.

A value given as a limit tells only on which side of the number the result lay.

The values that follow come from patent publication US10106542B2, “Substituted 6,7-dihydropyrazolo[1,5-a]pyrazines as negative allosteric modulators of mGluR2 receptors” (Janssen Pharmaceutica NV, priority 2013, dated 2018).

T1 sequence (Q14416 19-872): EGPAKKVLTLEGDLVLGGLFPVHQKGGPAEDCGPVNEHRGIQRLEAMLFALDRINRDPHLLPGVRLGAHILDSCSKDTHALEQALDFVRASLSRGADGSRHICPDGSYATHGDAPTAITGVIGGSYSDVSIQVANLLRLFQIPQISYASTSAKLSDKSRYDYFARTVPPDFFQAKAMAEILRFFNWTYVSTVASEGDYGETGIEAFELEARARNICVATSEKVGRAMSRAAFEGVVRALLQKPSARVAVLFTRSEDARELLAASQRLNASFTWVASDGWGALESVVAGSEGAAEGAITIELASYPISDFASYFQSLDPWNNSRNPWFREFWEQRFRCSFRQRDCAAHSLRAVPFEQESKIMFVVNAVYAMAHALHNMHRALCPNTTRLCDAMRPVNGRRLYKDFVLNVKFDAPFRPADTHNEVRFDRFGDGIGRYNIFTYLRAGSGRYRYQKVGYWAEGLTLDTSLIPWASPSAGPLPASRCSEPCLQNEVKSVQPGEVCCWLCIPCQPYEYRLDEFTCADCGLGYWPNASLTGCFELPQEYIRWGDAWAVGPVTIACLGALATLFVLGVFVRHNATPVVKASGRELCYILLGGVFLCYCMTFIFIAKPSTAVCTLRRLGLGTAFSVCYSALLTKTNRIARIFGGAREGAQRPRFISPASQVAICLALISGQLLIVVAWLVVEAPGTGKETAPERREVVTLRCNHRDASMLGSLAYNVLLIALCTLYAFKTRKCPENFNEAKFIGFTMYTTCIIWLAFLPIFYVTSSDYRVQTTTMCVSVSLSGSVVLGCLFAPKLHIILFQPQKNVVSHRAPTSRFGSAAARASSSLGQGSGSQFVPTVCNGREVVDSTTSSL

As for `N[C@@]1(C(=O)O)CC[C@H]2[C@H](C(=O)O)[C@H]21` [LY-354740, reference compound], in data set [1] (1 μM LY-354740), the “paired-pulse ratio (PPR)” value was “increase of the paired-pulse ratio”. Moreover, the “depression of fEPSP” value in data set [1] (1 μM, within 15 min of application, dentate gyrus) was determined as 50%.
In the case of `C[C@H]1CN(c2ccc(C(F)(F)F)cc2)C(=O)c2c(-c3ccncc3)cnn21` [compound 2, (7S)-7-Methyl-3-pyridin-4-yl-5-[4-(trifluoromethyl)phenyl]-6,7-dihydropyrazolo [1,5-a]pyrazin-4(5H)-one], the values for the ED50 in data set [2] (Route PO), in data set [3] and in data set [4] were 0.5 mg/kg, 0.32 mg/kg and 1.26 mg/kg, respectively.
For the molecule `Cc1cc(-c2cnn3c2C(=O)N(c2ccc(C(F)(F)F)c(C)c2)C[C@@H]3C)ccn1` [compound 5], the ED50 (in general, the dose that gives a 50% effect, or the effect in half of the subjects) in data set [2] (Route PO) is over 10 mg/kg; in data set [4], at least 2.5 mg/kg.
`CCOc1cc(N2C[C@H](C)n3ncc(-c4ccnc(C)c4)c3C2=O)ccc1C(F)(F)F` [compound 8]: the ED50 in data set [2] (Route PO) was found to be 5 mg/kg. In addition, in data set [4], the ED50 came to 5 mg/kg. In data set [5], the IC50 is 5.89e-09 M and the Emax (in general, the size of the effect at its maximum, as opposed to the concentration needed) turned out to be 105%.
Turning to `Cc1cc(-c2cnn3c2C(=O)N(c2ccc(Cl)cc2)C[C@@H]3C)ccn1` [compound 15], the ED50 in data set [2] (Route PO) was 11.2 mg/kg; in data set [4] it was 1.26 mg/kg. Moreover, in data set [5], the IC50 was 2.63e-08 M. In addition, in data set [5], the Emax came to 103%.
For `CCOc1cc(N2C[C@@H](C)n3ncc(-c4ccnc(C)c4)c3C2=O)ccc1C(F)(F)F` [compound 31], the ED50 in data set [2] (Route PO) was at least 10 mg/kg. Besides, in data set [3], the ED50 is 0.79 mg/kg. Besides, in data set [5], the IC50 was 4.37e-07 M and the Emax was found to be 107%.
For `CCOc1cc(N2CCn3ncc(-c4ccnc(C)c4)c3C2=O)ccc1C(F)(F)F` [compound 33] the same measures were over 2.5 mg/kg, 0.5 mg/kg, 5.75e-07 M and 99%.
For `CCNc1cc(-c2cnn3c2C(=O)N(c2ccc(C(F)(F)F)cc2)C[C@@H]3C)ccn1` [compound 44, (7S)-3-[2-(Ethylamino)-4-pyridyl]-7-methyl-5-[4-(trifluoromethyl)phenyl]-6,7-dihydropyrazolo[1,5-a]pyrazin-4-one], the melting point – broadly, the temperature of the solid-liquid transition – is over 300 °C. Moreover, the ED50 in data set [2] (Route PO) was 0.5 mg/kg. For the same molecule, the ED50 in data set [4] is at least 2.5 mg/kg. In data set [5], the IC50 was 6.17e-09 M and the Emax turned out to be 105%.
Turning to `COc1cc(-c2cnn3c2C(=O)N(c2ccc(C(F)(F)F)cc2)C[C@@H]3C)ccn1` [compound 45, (7S)-3-(2-Methoxy-4-pyridyl)-7-methyl-5-[4-(trifluoromethyl)phenyl]-6,7-dihydropyrazolo[1,5-a]pyrazin-4-one], the results for the ED50 in data set [2] (Route PO) and in data set [4] were 0.79 mg/kg and 1.26 mg/kg, respectively.
`CCc1cc(-c2cnn3c2C(=O)N(c2ccc(C(F)(F)F)cc2)C[C@@H]3C)ccn1` [compound 46, (7S)-3-(2-Ethyl-4-pyridyl)-7-methyl-5-[4-(trifluoromethyl)phenyl]-6,7-dihydropyrazolo[1,5-a]pyrazin-4-one]: the melting point is 124.6 °C. The ED50 in data set [2] (Route PO) is 0.32 mg/kg. In addition, in data set [4], the ED50 was at least 2.5 mg/kg. Besides, in data set [5], the IC50 is 6.31e-09 M and the maximal response (Emax) is 105%.
Consider `Cc1cc(-c2cnn3c2C(=O)N(c2ccc(C(F)(F)F)cc2)C[C@@H]3C)cc[n+]1[O-]` [compound 140, (7S)-7-Methyl-3-(2-methyl-1-oxido-pyridin-1-ium-4-yl)-5-[4-(trifluoromethyl)phenyl]-6,7-dihydropyrazolo[1,5-a]pyrazin-4-one], for which the melting point came to 231.5 °C. For the same molecule, in data set [2] (Route PO), the ED50 came to 1.99 mg/kg. For the same molecule, in data set [5], the IC50 is 5.13e-07 M and the Emax worked out at 104%.
For the molecule `CNc1cc(-c2cnn3c2C(=O)N(c2ccc(C(F)(F)F)cc2)C[C@@H]3C)ccn1` [compound 147, (7S)-7-Methyl-3-[2-(methylamino)-4-pyridyl]-5-[4-(trifluoromethyl)phenyl]-6,7-dihydropyrazolo[1,5-a]pyrazin-4-one], the ED50 in data set [2] (Route PO) came out at 1.26 mg/kg. Further, in data set [4], the ED50 was 0.5 mg/kg. For the same molecule, in data set [5], the IC50 was 5.75e-09 M and the Emax came to 106%.
`Cc1cc(-c2cnn3c2C(=O)N(c2ccc(Cl)cc2Cl)C[C@@H]3C)ccn1` [compound 167]: in data set [2] (Route PO), the ED50 was over 40 mg/kg. In data set [5], the IC50 is 7.59e-07 M and the Emax was determined as 105%.
As for `Cc1cc(-c2cnn3c2C(=O)N(c2ccc(Cl)cc2C)C[C@@H]3C)ccn1` [compound 172], the ED50 in data set [2] (Route SC) is over 40 mg/kg. In addition, in data set [5], the IC50 was 1.05e-06 M and the Emax came out at 105%.
